“And” between values parts separate entries of the source, which are not always exact repeats. Equal values may be shown once.
System: BDF1 mice, Adenocarcinoma 755 s.c., tumor weight T/C
Test: NCI In Vivo Anticancer Drug Screen. Data for tumor model Adenocarcinoma 755 (subcutaneous) in B6D2F1 (BDF1) mice
Settings: endpoint: mean tumor weight, schedule: Q01DX011 (ip), higher = larger tumour
In short: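 Transplantable tumor implanted; mice dosed with compound or vehicle; survival or tumor size recorded; ratio of treated to vehicle control reported.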

[1] = dose: 10.0 mg/kg/injection, vehicle: carboxymethylcellulose (CMC)
[2] = dose: 20.0 mg/kg/injection, vehicle: carboxymethylcellulose (CMC)
[3] = dose: 20.0 mg/kg/injection, vehicle: methylcellulose (MC)
[4] = dose: 40.0 mg/kg/injection, vehicle: carboxymethylcellulose (CMC)

`Cc1ccc(S(=O)(=O)OCCC(=O)N2CCN(C(=O)CCOS(=O)(=O)c3ccc(C)cc3)CC2)cc1` was tested, and the T/C (dose: 22.0 mg/kg/injection, vehicle: methylcellulose (MC)) was 57 % of control, the T/C (dose: 43.0 mg/kg/injection, vehicle: methylcellulose (MC)) was 47 % of control and the T/C (dose: 87.0 mg/kg/injection, vehicle: methylcellulose (MC)) was 80 % of control. The T/C (dose: 175.0 mg/kg/injection, vehicle: methylcellulose (MC)) was 60 % of control.
`Cc1cc(=O)c2c(C)cccc2[nH]1` was tested, and the T/C [1] was 112 % of control, the T/C (dose: 10.0 mg/kg/injection, vehicle: methylcellulose (MC)) was 60 % of control and the T/C [2] was 105 % of control. The T/C [3] was 59 % of control, the T/C [4] was 86 % of control and the T/C (dose: 40.0 mg/kg/injection, vehicle: methylcellulose (MC)) was 72 % of control. For the same compound, the T/C (dose: 80.0 mg/kg/injection, vehicle: carboxymethylcellulose (CMC)) was 58 % of control and 60 % of control and 75 % of control, the T/C (dose: 80.0 mg/kg/injection, vehicle: methylcellulose (MC)) was 57 % of control and the T/C (dose: 160.0 mg/kg/injection, vehicle: carboxymethylcellulose (CMC)) was 106 % of control. The T/C (dose: 320.0 mg/kg/injection, vehicle: carboxymethylcellulose (CMC)) was 106 % of control.
With `S=P(N1CC1)(N1CC1)N1CC1` the T/C (dose: 0.3 mg/kg/injection, vehicle: carboxymethylcellulose (CMC)) was 60 % of control, the T/C (dose: 0.48 mg/kg/injection, vehicle: carboxymethylcellulose (CMC)) was 45 % of control and the T/C (dose: 0.58 mg/kg/injection, vehicle: carboxymethylcellulose (CMC)) was 91 % of control. For the same compound, the T/C (dose: 0.6 mg/kg/injection, vehicle: carboxymethylcellulose (CMC)) was 53 % of control and 62 % of control (2×), the T/C (dose: 0.65 mg/kg/injection, vehicle: carboxymethylcellulose (CMC)) was 90 % of control and the T/C (dose: 0.75 mg/kg/injection, vehicle: methylcellulose (MC)) was 62 % of control. The T/C (dose: 0.8 mg/kg/injection, vehicle: carboxymethylcellulose (CMC)) was 53 % of control and 77 % of control, the T/C (dose: 1.3 mg/kg/injection, vehicle: carboxymethylcellulose (CMC)) was 54 % of control and the T/C (dose: 1.45 mg/kg/injection, vehicle: carboxymethylcellulose (CMC)) was 89 % of control and 99 % of control. For the same compound, the T/C (dose: 1.5 mg/kg/injection, vehicle: methylcellulose (MC)) was 37 % of control, the T/C (dose: 2.4 mg/kg/injection, vehicle: carboxymethylcellulose (CMC)) was 14 % of control and 29 % of control and 38 % of control and the T/C (dose: 2.6 mg/kg/injection, vehicle: carboxymethylcellulose (CMC)) was 35 % of control. For the same compound, the T/C (dose: 2.9 mg/kg/injection, vehicle: carboxymethylcellulose (CMC)) was 28 % of control and 52 % of control, the T/C (dose: 3.0 mg/kg/injection, vehicle: methylcellulose (MC)) was 14 % of control and the T/C (dose: 5.2 mg/kg/injection, vehicle: carboxymethylcellulose (CMC)) was 7 % of control and 9 % of control. The T/C (dose: 6.0 mg/kg/injection, vehicle: methylcellulose (MC)) was 6 % of control, the T/C (dose: 725.0 micrograms/kg/injection, vehicle: carboxymethylcellulose (CMC)) was 83 % of control and the T/C (dose: 1450.0 micrograms/kg/injection, vehicle: carboxymethylcellulose (CMC)) was 30 % of control. The T/C (dose: 2900.0 micrograms/kg/injection, vehicle: carboxymethylcellulose (CMC)) was 36 % of control and the T/C (dose: 5800.0 micrograms/kg/injection, vehicle: carboxymethylcellulose (CMC)) was 26 % of control.
`CC(=O)Nc1c(Cl)c(Cl)c2c(c1Cl)Cc1cc(F)ccc1-2` was tested, and the T/C (dose: 125.0 mg/kg/injection, vehicle: carboxymethylcellulose (CMC)) was 91 % of control, the T/C (dose: 125.0 mg/kg/injection, vehicle: saline) was 29 % of control and the T/C (dose: 250.0 mg/kg/injection, vehicle: carboxymethylcellulose (CMC)) was 41 % of control. The T/C (dose: 250.0 mg/kg/injection, vehicle: saline) was 29 % of control, the T/C (dose: 500.0 mg/kg/injection, vehicle: carboxymethylcellulose (CMC)) was 42 % of control and the T/C (dose: 500.0 mg/kg/injection, vehicle: saline) was 17 % of control. For the same compound, the T/C (dose: 1000.0 mg/kg/injection, vehicle: carboxymethylcellulose (CMC)) was 25 % of control and the T/C (dose: 1000.0 mg/kg/injection, vehicle: saline) was 14 % of control.
In the case of `CC(CNC(=O)CCBr)CNC(=O)CCBr`, the T/C (dose: 113.0 mg/kg/injection, vehicle: carboxymethylcellulose (CMC)) is reported as 51 % of control.
For `CC(=O)Nc1cc2c(cc1Br)-c1ccccc1C2O` (stereo unspecified), the T/C (dose: 35.0 mg/kg/injection, vehicle: saline) was 43 % of control, the T/C (dose: 75.0 mg/kg/injection, vehicle: saline) was 52 % of control and the T/C (dose: 155.0 mg/kg/injection, vehicle: saline) was 38 % of control. The T/C (dose: 210.0 mg/kg/injection, vehicle: saline) was 23 % of control.
With `Cc1ccc(CSc2nc(N)nc3nc[nH]c23)cc1C` the T/C (dose: 31.25 mg/kg/injection, vehicle: methylcellulose (MC)) was 37 % of control, the T/C (dose: 62.5 mg/kg/injection, vehicle: methylcellulose (MC)) was 33 % of control and the T/C (dose: 125.0 mg/kg/injection, vehicle: methylcellulose (MC)) was 15 % of control. The T/C (dose: 250.0 mg/kg/injection, vehicle: methylcellulose (MC)) was 1 % of control and 7 % of control and the T/C (dose: 350.0 mg/kg/injection, vehicle: methylcellulose (MC)) was 5 % of control.
With `CCCN(C)/N=N/c1nc[nH]c1C(N)=O` the T/C (dose: 5.0 mg/kg/injection, vehicle: carboxymethylcellulose (CMC)) was 91 % of control, the T/C (dose: 7.5 mg/kg/injection, vehicle: carboxymethylcellulose (CMC)) was 87 % of control and the T/C [1] was 51 % of control. For the same compound, the T/C (dose: 15.0 mg/kg/injection, vehicle: carboxymethylcellulose (CMC)) was 47 % of control, the T/C [2] was 39 % of control and the T/C (dose: 30.0 mg/kg/injection, vehicle: carboxymethylcellulose (CMC)) was 30 % of control. For the same compound, the T/C [4] was 37 % of control.
With `COc1cc(-c2ccc(Nc3ccccc3C(=O)O)c(OC)c2)ccc1N` the T/C (dose: 10.0 mg/kg/injection, vehicle: saline) was 108 % of control, the T/C (dose: 20.0 mg/kg/injection, vehicle: saline) was 36 % of control and the T/C (dose: 40.0 mg/kg/injection, vehicle: saline) was 39 % of control. The T/C (dose: 80.0 mg/kg/injection, vehicle: saline) was 17 % of control.
For `CCOC(=O)c1c(C#N)c(Cl)nc(C)c1[N+](=O)[O-]`, the T/C (dose: 1.5 mg/kg/injection, vehicle: carboxymethylcellulose (CMC)) was 60 % of control and the T/C (dose: 3.0 mg/kg/injection, vehicle: carboxymethylcellulose (CMC)) was 70 % of control.
In the case of `CC(=O)NCCSC(=O)C(=O)SCCNC(C)=O`, the T/C (dose: 25.0 mg/kg/injection, vehicle: saline) is reported as 62 % of control, the T/C (dose: 50.0 mg/kg/injection, vehicle: saline) is reported as 65 % of control and the T/C (dose: 200.0 mg/kg/injection, vehicle: saline) is reported as 42 % of control and 63 % of control.
With `CNC(=O)NO` the T/C (dose: 50.0 mg/kg/injection, vehicle: water) was 65 % of control and the T/C (dose: 100.0 mg/kg/injection, vehicle: water) was 43 % of control.
`CC(C)Cn1cnc2c(SCc3ccccn3)nc(N)nc21` was tested, and the T/C [3] was 5 % of control and the T/C (dose: 65.0 mg/kg/injection, vehicle: methylcellulose (MC)) was 1 % of control.
For `CCn1cnc2c(=S)nc(N)[nH]c21`, the T/C (dose: 0.44 mg/kg/injection, vehicle: methylcellulose (MC)) was 108 % of control, the T/C (dose: 0.88 mg/kg/injection, vehicle: methylcellulose (MC)) was 66 % of control and the T/C (dose: 1.75 mg/kg/injection, vehicle: methylcellulose (MC)) was 33 % of control. For the same compound, the T/C (dose: 3.5 mg/kg/injection, vehicle: methylcellulose (MC)) was 3 % of control.

Source: PubChem BioAssay AID180 (DTP/NCI, 2004)
